Earlier results as cited in patent US20020150615A1, “Injectable pharmaceutical composition comprising microdroplets of a camptothecin” (priority 2001, published 2002).

Experiments:
[1] = human whole blood
[2] = target: human serum albumin (HSA) (Homo sapiens, UniProt P02768); settings: PBS at pH 7.4
Sequence of human serum albumin (HSA) (P02768 25-609): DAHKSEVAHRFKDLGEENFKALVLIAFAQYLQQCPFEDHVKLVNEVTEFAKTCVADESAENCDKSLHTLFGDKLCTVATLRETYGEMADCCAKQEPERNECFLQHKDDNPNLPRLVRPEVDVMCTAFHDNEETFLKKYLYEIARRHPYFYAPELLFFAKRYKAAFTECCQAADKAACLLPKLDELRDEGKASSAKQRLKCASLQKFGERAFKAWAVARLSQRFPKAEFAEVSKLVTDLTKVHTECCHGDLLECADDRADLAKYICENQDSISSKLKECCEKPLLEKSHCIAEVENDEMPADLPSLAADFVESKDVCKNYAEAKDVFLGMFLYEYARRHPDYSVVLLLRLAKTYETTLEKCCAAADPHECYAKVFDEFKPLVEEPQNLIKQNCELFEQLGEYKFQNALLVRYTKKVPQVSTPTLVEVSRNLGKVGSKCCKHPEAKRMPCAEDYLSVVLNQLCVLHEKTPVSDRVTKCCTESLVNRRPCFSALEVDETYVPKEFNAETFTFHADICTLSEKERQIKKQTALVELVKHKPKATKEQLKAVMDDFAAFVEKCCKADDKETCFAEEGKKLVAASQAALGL

For `CC[C@@]1(O)C(=O)OCc2c1cc1n(c2=O)Cc2cc3ccccc3nc2-1` [camptothecin, 20(S)-camptothecin], the “half-life of lactone ring opening” value [1] is listed as 22 min and the “affinity of the carboxylate form relative to the α-hydroxy lactone form” value [2] is listed as 150 fold.
